“Also recorded” adds a separate entry of the source.
Tests used:
BDNF mRNA = assay: Induction of BDNF mRNA expression in rats; type: in vivo, Sprague Dawley rats; settings: 0.3, 1.0 and 3.0 μg/kg oral, 8 days; hippocampus (FIG. 1)
Experimental: (§1) Young adult male Sprague Dawley rats (250-350 g) were administered Compound (A), Compound (E), or a vehicle (80% propylene glycol (human formulation grade; Spectrum Quality Products, Inc., Gardena, Calif., catalog #PR130-55003) and 20% phosphate buffer, pH 9.2) at doses ranging from 0.1 to 5.5 μg/kg daily by oral gavage for eight days. Five hours after the last dose, the animals were sacrificed by decapitation. Each brain was quickly removed and chilled in ice-cold saline. The brain was cut into 2 mm thick coronal sections. Portions of the hippocampus, encompassing the CA1 region, and the medial septum were removed by punching 2 mm^3 sections using a calibrated tissue punch. Punched sections were immediately frozen on dry ice and then stored at -70° C. RNA was prepared from dissected tissue pieces.
(§2) Punches of tissue were homogenized in […] RNAzolB™ (Bioteex Laboratories, Houston, Tex.) using a homogenizer (Tekmar, Germany) until fully homogenized and then 250 μl RNAzilB™ was added. Typically, punches from the corresponding regions of brains of 2 to 3 animals were combined together. RNA was prepared as recommended by the manufacturer (Biotecx Laboratories). […] Concentration of RNA was measured spectrophotometrically and the quality of RNA was visualized on a nondenaturing agarose gel. […]

NGF mRNA = assay: Induction of NGF mRNA expression in primates; type: in vivo, monkey
Experimental: Twelve monkeys, ranging in weight from 2.0 Kg to 4.7 Kg, were divided into three groups of 4 animals each: the vehicle group (i.e., control), group dosed with 10 μg/kg/day, and group dosed with 30 μg/kg/clay. The monkeys were dosed orally for 8 days with Compound (A) and were sacrificed 5 hours after the last dosing. Brain regions were dissected and quick frozen. The dissected septi were divided into 3 preparations and two of the three regions of septum were analyzed. Total RNA was prepared and reverse transcribed and gene expression was assessed using polymerase chain reaction by the following procedure.
Total RNA was prepared by homogenizing sections of tissue in 750 μl RNAzolB™ (Biotecx Laboratories, Houston, Tex.) using a homogenizer (Tekmar, Germany) until fully homogenized and then 250 μl RNAzilB™ was added. RNA was prepared as recommended by the manufacturer (Biotecx Laboratories). […] Concentration of RNA was measured spectrophotometrically and the quality of RNA was visualized on a nondenaturing agarose gel. […]
An average of 4 PCR assays (two assays for each gene for two cDNA sets) were used in determining the induction of mRNA expression. To assure that PCR assays were within the linear range of the reaction, the linear range for each gene and each cDNA preparation was determined using serial dilutions of cDNAs. […]

[1] = test system: acrylamide-induced peripheral neuropathy in rats; assay: Acrylamide-induced peripheral neuropathy, landing foot spread; type: in vivo, rat
Experimental: Peripheral neuropathy was induced in rats by the administration of the neurotoxin acrylamide, 50 mg/kg, IP, 3×/week. The acrylamide treatment occurred during the first three weeks of the experiment. After acrylamide was discontinued, the animals were allowed to recover for an additional 3-5 weeks. The ability of Compound (A) or Compound (B) to either slow the onset of peripheral neuropathy, reduce the severity of the peripheral neuropathy or enhance the recovery from peripheral neuropathy was determined. The compounds were administered either orally (Compound (A)) or via subcutaneous Alzet mini-pumps (I month model)(Compounds (A) and (B)) beginning 3 days prior to the first dose of acrylamide. Compound (A) was administered orally at doses of 0.3, 1.0 and 3.0 μg/kg/day and by mini-pump at doses of 10, 55, 100, 330 and 550 ng/day. Compound (B) was administered by mini-pump at doses of 10, 33, 100, 330 and 1000 ng/day. These dose ranges were selected to limit toxicity and to bracket the dose range used in fimbria fornix lesion experiments. The mini-pumps were replaced at the end of the fourth week so that the test compound was on board for the duration of the experiment. In FIG. 11B, the data from FIG. 11A was averaged.

[2] = Serum calcium in fimbria fornix lesioned rats; type: in vivo, Sprague Dawley rats; settings: oral gavage daily 14 days; data not shown
Experimental: For the fimbria fornix lesion studies, serum calcium was determined by the following method. Sprague Dawley rats (200-300 g) were dosed as described below. Blood was collected from the animals after sacrifice and allowed to clot at room temperature for 3-10 minutes; cells were pelleted in a clinical centrifuge.
The hippocampal ChAT activity is expressed as a percentage of the hippocampal ChAT activity of the […] control side (i.e., lesion control) in FIGS. 4 to 8.

NT-3 mRNA = assay: Induction of NT-3 mRNA expression in rats; type: in vivo, Sprague Dawley rats; settings: 0.3, 1.0 and 3.0 μg/kg oral, 8 days; hippocampus (FIG. 1)
Experimental: as §1, §2

[3] = Serum calcium / hypercalcemia in rats (2 weeks dosing, 28-day toxicology); type: in vivo, Sprague Dawley rats
NRT-like mRNA = assay: Induction of NRT-like mRNA expression in rats; type: in vivo, Sprague Dawley rats; settings: 0.3, 1.0 and 3.0 μg/kg oral, 8 days; septum (FIG. 1)
Experimental: as §1, §2

C=C1/C(=C\C=C2/CCC[C@]3(C)[C@@H]([C@@H](C)[C@@H](C#CCC(O)(CC)CC)OCC)CC[C@@H]23)C[C@@H](O)C[C@@H]1O [Compound (A), 1(S),3(R)-dihydroxy-20(R)-(1-ethoxy-5-ethyl-5-hydroxy-2-heptyn-1-yl)-9,10-seco-pregna-5(Z),7(E),10(19)-triene]
production of BDNF mRNA (BDNF mRNA): facilitated the production of NRT-like mRNA, GDNF mRNA, NT-3 mRNA, and BDNF mRNA | production of NGF mRNA (NGF mRNA; 10 and 30 μg/kg/day oral, 8 days, primate septum (FIG. 14A)): facilitated the production of NGF mRNA | dosage of greatest NGF mRNA production (NGF mRNA; 10 vs 30 μg/kg/day oral): greatest at a dosage of 10 μg/kg/day | development of peripheral neuropathy ([1]; continuously pumped (mini-pump)): did not prevent the development of the acrylamide-induced peripheral neuropathy | recovery from peripheral neuropathy ([1]; mini-pump): improved recovery; also recorded: an effect upon the recovery from the lesion was apparent | landing foot spread ([1]; mini-pump, recovery period): effective in reducing landing foot spread, but only during the recovery period; also recorded: decreased landing foot spread during the recovery period | development of peripheral neuropathy ([1]; oral): prevented the development of acrylamide-induced peripheral neuropathy | severity of neuropathy and functional recovery ([1]; oral): dose-dependent effects on both the severity of the acrylamide-induced peripheral neuropathy as well as the ability of the animals to functionally recover from the lesion | landing foot spread ([1]; oral 3.0 μg/kg/day): statistically significant decrease in landing foot spread | time course of decrease in landing foot spread ([1]; oral 3.0 μg/kg/day, onset days 1-24, recovery days 24-42): occurred during the onset of the lesion (days 1-24) and were sustained through the recovery phase | landing foot spread ([1]; oral, FIGS. 11A-11C legend): decreases landing foot spread | serum calcium at doses giving the ChAT results [2]: low calcemic dose levels | production of NT-3 mRNA (NT-3 mRNA): facilitated the production of NRT-like mRNA, GDNF mRNA, NT-3 mRNA | serum calcium ([3]; 1.0 μg/kg, after 2 weeks of dosing): did not increase serum calcium | calcemic classification of dose ([3]; 1.0 μg/kg, considered in toto): hypercalcemic dose when considered in toto | hypercalcemia, 28-day toxicology studies ([3]; 1 μg/kg, female vs male Sprague Dawley rats, data not shown): hypercalcemic to female, but not male, Sprague Dawley rats | hypercalcemia ([3]; 3.0 μg/kg): hypercalcemic to the animals | production of NRT-like mRNA (NRT-like mRNA): facilitated the production of NRT-like mRNA

Source: patent US6207656A, “Vitamin D analogues and their neuronal effects” (Cephalon, Inc., priority 1998, dated 2001)
